Experimental data published in publication PMC9936582, “Sulfamate Acetamides as Self-Immolative Electrophiles for Covalent Ligand-Directed Release Chemistry” (Journal of the American Chemical Society, 2023).

How the values were obtained:
Mino cells = test: In situ proteomic labeling with alkyne probes, in-gel fluorescence; assay type: cell-based; conditions: 2 h, TAMRA-azide CuAAC
Source text: To assess proteomic selectivity in cells, we have synthesized two sulfamate acetamides (2a and 2b) and a chloroacetamide (2c) with an alkyne functionality (Figure 2A and Figure S8). We treated Mino cells for two hours with either DMSO or 2a–2c. We then lysed the cells, labeled the alkynes via copper-catalyzed “click chemistry” (CuAAC) with TAMRA-azide, and imaged the adducts via in-gel fluorescence (Figure 2C). Similar to their reactivity pattern in the GSH reactivity assay, these compounds labeled various amounts of proteins under cellular conditions.
Mino cells were cultured in RPMI-medium supplemented with 15% FBS and 1% p/s at 37 °C and 5% CO2. […] The cells were lysed with RIPA buffer (Sigma, R0278), and protein concentration was determined using BCA protein assay (Thermo Fisher Scientific, 23225). Lysates were then diluted to 2 mg/mL in PBS. Lysates were clicked to TAMRA-azide (Lumiprobe). “Click” reaction was performed using a final concentration of 40 μM TAMRA-azide, 3 mM CuSO4, 3 mM Tris(3-hydroxypropyltriazolylmethyl)amine (THPTA, Sigma), and 3.7 mM Sodium L-ascorbate (Sigma) in a final volume of 60 μL. The samples were subjected to precipitation.
Precipitation: 1× chloroform, 4× methanol, and 3× water were added to the samples and vortexed thoroughly. The samples were spun down for 10 min at 4 °C, 21,000g. […]

BTK [1] = target: T1, BTK (Homo sapiens, UniProt Q06187); test: Cellular labeling profile of CoLDR probe in Mino cells, in-gel fluorescence; assay type: cell-based; set-up: endogenous in cells; host or cells: Mino cells; conditions: 2 h, 100 nM
Protocol: In addition to the in vitro labeling of BTK by our probe, we also tested its engagement in cells. […] The samples were imaged via gel fluorescence. […] We conducted this cellular labeling experiment at higher concentrations to assess the saturation of BTK binding (Figure S33B).
Precipitation: 1× chloroform, 4× methanol, and 3× water were added to the samples and vortexed thoroughly. The samples were spun down for 10 min at 4 °C, 21,000g. The top layer was aspirated, and the pellet was resuspended in 4× methanol. The sample was vortexed and spun down again for 10 min at 4 °C, 21,000g, the solution was removed, and the pellet was dried for 2 min. The pellet was dissolved in 42 μL of PBS followed by a 14 μL of 4× sample buffer.

[2] = GSH consumption assay (LC/MS); conditions: 100 μM compound, 5 mM GSH, same conditions as ibrutinib
Protocol: A sample from the reaction mixture was injected to an LC/MS every hour, and we quantified the decrease in starting material over the course of the reaction.
All solvents were bubbled with argon. Reaction mixtures were kept at 10 °C. Every 1 h, 5 μL from the reaction mixture were injected into the LC/MS. The reaction was followed by the peak area of the electrophile normalized by the area of the 4-nitrocyano benzene (i.e., by the disappearance of the starting material). The natural logarithm of the results was fitted to linear regression, and t1/2 was calculated as t1/2 = ln 2/–slope.

BTK [3] = target: T1, BTK; test: BTK activity (autophosphorylation) in Mino cells, Western blot; assay type: cell-based; set-up: endogenous in cells; host or cells: Mino cells; conditions: anti-human IgM activation
Protocol: To assess the cellular efficacy of these compounds, we followed the inhibition of BTK autophosphorylation in Mino cells. After 1 h of pre-incubation with the inhibitors and B-cell activation with an anti-IgM antibody, BTK autophosphorylation was followed by Western blot.
The cell pellets were subjected to immunoblotting, and Western blots were performed for p-BTK, BTK, and β-actin.
Cell pellets were washed with ice-cold PBS and lysed using RIPA buffer (Sigma, R0278). […] Samples containing 50 μg total protein were prepared with 4× LDS sample buffer (NuPAGE, Thermo Scientific, NP0007) and 20 mM DTT, which were then resolved on a 4–20% Bis–Tris gel (GeneScript SurePAGE, M00657). […] An EZ-ECL Kit (Biological Industries, 20-500-1000) was used to detect HRP activity.

[4] = DTNB thiol reactivity assay; assay type: physicochemical
Protocol: The compound 5,5′-dithio-bis(2-nitrobenzoic acid) (DTNB; 50 μM) was incubated with 200 μM tris(2-carboxyethyl)phosphine (TCEP) in 20 mM sodium phosphate buffer (pH 7.4) and 150 mM NaCl for 5 min at room temperature to obtain TNB^–2. […] UV absorbance was acquired every 15 min for 7 h. The assay was performed in a 384-well plate using a Tecan Spark 10 M plate reader. […] Compounds were measured in triplicate. The data were fitted to a second-order reaction equation such that the rate constant (K) is the slope of ln([A][B0]/[B][A0]), where [A0] and [B0] are the initial concentrations of the compound (200 μM) and TNB^–2 (100 μM), respectively, and [A] and [B] are the remaining concentrations as a function of time as deduced from spectrometric measurements. Linear regression using Prism was performed to fit the rate against the first 7 h of measurements.

[5] = Metabolic stability of sulfopin analogues in liver microsomes; assay type: in vitro ADME
Protocol: Next, we examined the buffer stability of the sulfopin sulfamate acetamides in PBS buffer (pH 8; 37 °C). Similar to the model compounds, the chloroacetamide (sulfopin) and sulfonate (4a) warheads show 30 and 15% hydrolysis after 2 days, respectively (Figure S26).
Figure S27: Sulfopin sulfamates show high metabolic stability: Compounds (Sulfopin, 4d, and 4g) were incubated
in liver microsomes and injected to LC/MS/MS at indicated time points. The peak intensities of the compounds were […]

Pin1 [6] = target: T2, Pin1 (Homo sapiens, UniProt Q13526); test: Determination of KI and Kinact for Pin1; assay type: binding; conditions: Pin1 0.5 μM, 100 mM Tris buffer pH 7.4, 14 °C
T2 construct: The catalytic domain of Pin1 (2 μM) in […] and 75 mM NaCl (pH 7.5) was incubated; made in house
Protocol: intensities. Ratios that were above 20 or infinite (due to the sum being zero for the low intensities) were defined as 20. Intensities measured for different peptides containing the same modified cysteine were […]
Pin 1 (500 nM) was incubated at various concentrations of Sulfopin (0.5, 1, 2, 5, 20, 50, 100, 150, […]
in 100 mM Tris buffer at pH 7.4. After the addition, the samples are put at 14 °C. The reaction mixtures, at various time points (indicated in the graph), were injected into the LC/MS. For data analysis, the raw spectra were deconvoluted using a 10000:30000 Da window and 1 Da resolution. The labeling percentage for a compound was determined as the labeling of a specific compound (alone or together with other compounds) divided by the overall detected protein species. The % of unlabelled Pin 1 was plotted against time and fitted to the pseudo-first-order reaction kinetics formula (Figure S24A & C). The obtained rate constants were fitted to the Michaelis-Menten-type saturation curve (Fig. S24B & D) to extrapolate kinact and KI.

PATU-8988T cells = test: Competitive isoDTB-ABPP in PATU-8988T cells; assay type: cell-based, human; set-up: dose or concentration left out as unconfirmed; conditions: 4 h
Protocol: Using our previously reported sulfopin-DTB probe[38] (Figure S29A), we evaluated the cellular engagement of these compounds with Pin1 in OCI-AML2 cells. Compounds 4c, 4d, 4e, and 4g and sulfopin were incubated in OCI-AML2 cells (0.5 and 2.5 μM) followed by lysis and treatment with sulfopin-DTB (1 μM). The lysates were pulled down using streptavidin beads, and Pin1 was imaged by Western blot. […] At 0.5 μM, all of these compounds show only ∼30% Pin1 engagement. […] Both sulfopin and 4d labeled only six peptides with an H/L ratio of >2. […]
The preparation of IsoDTB-ABPP samples was performed essentially as described in Zanon et al.2.
Experiments were conducted in quadruplicates. PATU cells were incubated for 2 h with 5 µM compounds Sulfopin or 3g (or with DMSO), and collected by centrifuge at 300 g for 5 min followed by ice cold PBS wash. For lysis, samples containing 10 million cells were dispersed in 0.5 mL of RIPA buffer (Sigma, R0278), incubated with occasional vortexing for 30 min on ice, followed by centrifugation at 21,000 g for 15 min. […]
sample was diluted to 1.7 mg/mL using PBS. To each sample, 5 µL of 10 mM IA-alkyne was added, followed by 1 h incubation at room temperature in the dark. 10 µL of 5 mM DesThioTag was added (Light for the compound treated samples, heavy for the DMSO-treated samples), followed by 18 µL of CuSO4:THPTA (100 mM), and the click reaction was initiated by addition of 15 µL of 150 mM sodium ascorbate (freshly dissolved in water). The samples were incubated on a rotary shaker for 1 h at room temperature. The compound-treated and DMSO-treated samples were mixed with 4 mL methanol, 1 mL chloroform and 2 mL water on ice, vortexed and centriduged at 3200 g for 10 min at 4°C. The top layer was aspirated, and 3 mL methanol was added, followed by centrifugation and aspiration of the supernatant. The pellets were air dried and stored at -80°C until the following treatment. The pellets were resuspended in 0.3 mL of 8 M urea freshly dissolved in PBS using probe sonication (8 sec total at 40% amplitude, 1 sec on/2 sec off, at room temperature). Following the resuspension, the samples were diluted with 1 mL of PBS. Then each sample was mixed with 1.3 mL of slurry containing 110 µL of streptavidin agarose beads (Thermo Streptavidin Agarose cat # 20349), prewashed, and dispersed in 0.2% IGEPAL. The samples were incubated with rotation for 3 h at room temperature. The beads were pelleted by centrifugation at 2000 g for 2 min, transferred to spin columns, and washed 3 times with 0.1% IGEPAL/PBS, 3 times PBS, and 3 times water.
The beads were then suspended in 8 M Urea/50 mM ammonium bicarbonate, and 15 µL of 31 mg/mL DTT were added, followed by incubation at 37°C for 45 min. […]

Pin1 [7] = target: T2, Pin1; test: Intact protein MS labeling of Pin1; assay type: binding; conditions: 2 μM Pin1, 2 μM compound, pH 7.5, 1 h, 25 °C
Protocol: Initially, we incubated these compounds (4a–4g; 2 μM) with Pin1 (2 μM; 50 mM Tris buffer; pH 7.5, 1 h; 25 °C) to check covalent labeling by intact protein MS (Figure 5B,C; Figure S23). Under these conditions, sulfopin labeled 59% as previously reported;[38] the sulfonate (4a) labeled 18%, whereas alkyl sulfamates (4b and 4c) labeled 16 and 56%, respectively. […] We have previously reported that replacing the tert-butyl group in sulfopin by a cyclohexyl increases the labeling along with intrinsic thiol reactivity. Compound 4g contains a cyclohexyl group instead of the tert-butyl and a phenyl sulfamate electrophile and was able to label >95% of Pin1 under these conditions.
Pin1 was expressed and purified as previously reported.[38] The catalytic domain of Pin1 (2 μM) in […] and 75 mM NaCl (pH 7.5) was incubated with 2 μM sulfopin sulfamate (4a–4g) for 1 h at 25 °C.
The reaction mixtures, at room temperature for various times, were injected into the LC/MS. For data analysis, the raw spectra were deconvoluted using a 20,000:40,000 Da (For Pin1, 10,000:30,000) window and 1 Da resolution. The labeling percentage for a compound was determined as the labeling of a specific compound (alone or together with other compounds) divided by the overall detected protein species.

Buffer stability assay = assay type: physicochemical
Protocol: Reaction mixtures were kept at 37 °C with shaking. After 4 days (unless otherwise mentioned), 5 μL from the reaction mixture were injected into the LC/MS to check the stability of the compounds.

[8] = Q13526_C113 (Pin1 Cys113), text: PATU-8988T cells

T1 sequence (Q06187 whole entry): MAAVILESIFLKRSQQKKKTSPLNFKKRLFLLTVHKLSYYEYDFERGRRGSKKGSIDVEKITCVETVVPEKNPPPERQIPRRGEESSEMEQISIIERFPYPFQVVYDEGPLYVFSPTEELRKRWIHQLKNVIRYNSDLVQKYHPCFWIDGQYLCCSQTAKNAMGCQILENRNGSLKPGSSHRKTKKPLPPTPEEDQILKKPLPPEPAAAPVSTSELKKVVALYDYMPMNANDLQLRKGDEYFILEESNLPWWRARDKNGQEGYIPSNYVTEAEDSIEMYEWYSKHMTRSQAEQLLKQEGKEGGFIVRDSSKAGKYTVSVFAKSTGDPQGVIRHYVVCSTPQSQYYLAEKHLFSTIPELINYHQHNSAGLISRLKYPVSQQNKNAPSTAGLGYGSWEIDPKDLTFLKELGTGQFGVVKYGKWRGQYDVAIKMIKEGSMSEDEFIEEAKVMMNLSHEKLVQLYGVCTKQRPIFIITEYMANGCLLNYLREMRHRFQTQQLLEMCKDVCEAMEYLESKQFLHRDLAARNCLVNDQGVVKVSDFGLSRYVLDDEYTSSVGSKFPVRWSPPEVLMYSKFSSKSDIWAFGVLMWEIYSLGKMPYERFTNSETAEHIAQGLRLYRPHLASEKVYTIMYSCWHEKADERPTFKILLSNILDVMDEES
T2 sequence (Q13526 52-163 limits assumed): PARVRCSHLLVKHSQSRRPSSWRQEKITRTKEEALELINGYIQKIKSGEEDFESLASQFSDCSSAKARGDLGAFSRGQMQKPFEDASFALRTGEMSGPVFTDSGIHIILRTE

SMILES: C#Cc1ccc(NC(=O)CCl)cc1 [2c]
- proteins labeled under cellular conditions (Mino cells): labeled the highest number of proteins

SMILES: C#CCOS(=O)(=O)N1CCC[C@@H](n2nc(-c3ccc(Oc4ccccc4)cc3)c3c(N)ncnc32)C1 [3j]
- apparent off-targets that ibrutinib did not compete (BTK [1]): three
- BTK labeling in cells (in words) (BTK [1]; TAMRA-azide): showed BTK labeling
- reaction with GSH (in words) [2]: did not undergo any reaction with GSH
- BTK autophosphorylation / activity after treatment (in words) (BTK [3]): BTK remained active

SMILES: CC(C)(C)CN(C(=O)COS(=O)(=O)Nc1ccccc1)C1CCS(=O)(=O)C1 (stereo not drawn) [4d]
- thiol reactivity compared to sulfopin [4]: lower thiol reactivity than sulfopin
- metabolic stability (in words) [5]: good metabolic stability
- Ki (Pin1 [6]): 43.6 µM
- isoDTB-ABPP H/L Ratio (PATU-8988T cells; [8]): 3.057
- isoDTB-ABPP H/L Ratio (PATU-8988T cells; Q15149_C4494, text: PATU-8988T cells): 2.693
- labeling of Pin1 (Pin1 [7]): > 90%

SMILES: CC(C)(C)CN(C(=O)CCl)C1CCS(=O)(=O)C1 (stereo not drawn) [sulfopin, reference compound]
- hydrolysis (buffer stability, sulfopin analogues) (Buffer stability assay; 200 μM, PBS buffer pH 8, 37 °C for four days): 30%
- hydrolysis (buffer stability, sulfopin analogues) (Buffer stability assay; PBS buffer pH 8, 37 °C, after 2 days): 30%
- metabolic stability (in words) [5]: good metabolic stability
- Ki (Pin1 [6]): 217 µM
- isoDTB-ABPP H/L Ratio (PATU-8988T cells; P18031_C32, text: PATU-8988T cells): 2.941
- isoDTB-ABPP H/L Ratio (PATU-8988T cells; [8]): 11.8257
- labeling of Pin1 (Pin1 [7]): 59%
